# Assays:
# [1] = tested on: intraocular tissue (retinal tissue incl. photoreceptor cell layer, vitreous body) of Zebrafish 7-day-old embryo; test: Staining of intraocular tissue of Zebrafish fry by exposure to staining liquid, ocular tissue section observed by confocal microscope; type: in vivo; details: Zebrafish 7 dpf fry, 1 μg/mL, 1 hour exposure, fixed ocular section
# [2] = Excitation and fluorescence wavelengths by fluorescence spectrometer FL4500; type: physicochemical; details: aqueous solution: 10 mg/mL DMSO solution diluted to 1/500 with purified water (Examples 1 to 94); in nm (unit assumed)
SMILES,Staining ability [1],λem (fluorescence wavelength) [2],λex (excitation wavelength) [2],Stained site [1]
C=CCN1C(=O)S/C(=c2/s/c(=C/c3ccc4c(c3)C3CCCC3N4c3ccccc3)c(=O)n2CC(=O)OCC)C1=O (centres unmarked) [Compound 51],++,638,580,–
CCOC(=O)CN1C(=O)/C(=C\c2ccc3c(c2)C2CCCC2N3c2ccccc2)SC1=S (centres unmarked) [Compound 52],++,638,580,–
COc1ccc(N2c3ccc(/C=c4/s/c(=C5/SC(=O)N(Cc6ccccc6)C5=O)n(CC(=O)O)c4=O)cc3C3CCCC32)cc1 (centres unmarked) [Compound 53],++,712,568,–
CCOC(=O)Cn1c(=O)/c(=C\c2ccc3c(c2)C2CCCC2N3c2ccc3cc(OC)ccc3c2)s/c1=C1/SC(=O)N(CC)C1=O (centres unmarked) [Compound 54],++,647,597,–
CCN1C(=O)S/C(=c2/s/c(=C/c3ccc4c(c3)C3CCCC3N4c3ccccc3)c(=O)n2CC(=O)O)C1=O (centres unmarked) [Compound 55],++,644,502,–
O=C(O)CN1C(=O)/C(=C\c2cc(Br)c3c(c2)C2CCCC2N3Cc2ccccc2)SC1=S (centres unmarked) [Compound 56],++,606,486,–
CCCCCCCCN1C(=O)S/C(=c2/s/c(=C/c3ccc4c(c3)C3CCCC3N4c3ccc(C=C(c4ccccc4)c4ccccc4)cc3)c(=O)n2CC(=O)OCC)C1=O (centres unmarked) [Compound 57],++,671,590,–
CCCCCCCCN1C(=O)S/C(=c2/s/c(=C/c3ccc4c(c3)C3CCCC3N4c3ccc(OC)cc3)c(=O)n2CC(=O)OCC)C1=O (centres unmarked) [Compound 58],++,676,546,–
CCCCCCCCN1C(=O)S/C(=c2/s/c(=C/c3ccc4c(c3)C3CCCC3N4c3ccccc3)c(=O)n2CC(=O)OCC)C1=O (centres unmarked) [Compound 59],++,625,581,–
COc1ccc(N2c3ccc(/C=C/c4sc5ccccc5[n+]4CC(=O)O)cc3C3CCCC32)cc1.[Br-] (centres unmarked) [Compound 60],++,677,560,2
O=C(O)C[n+]1c(/C=C/c2ccc3c(c2)C2CCCC2N3c2ccccc2)sc2ccccc21.[Br-] (centres unmarked) [Compound 61],++,636,545,–
O=C(O)C[n+]1c(/C=C/c2ccc3c(c2)C2CCCC2N3c2ccc(C=C(c3ccccc3)c3ccccc3)cc2)sc2ccccc21.[Br-] (centres unmarked) [Compound 62],++,675,610,2
O=C(O)C[n+]1c(/C=C/c2ccc3c(c2)C2CCCC2N3Cc2ccccc2)sc2ccccc21.[Br-] (centres unmarked) [Compound 63],++,611,566,1
COc1ccc2cc(N3c4ccc(/C=C/c5sc6ccccc6[n+]5CC(=O)O)cc4C4CCCC43)ccc2c1.[Br-] (centres unmarked) [Compound 64],++,516,401,2
O=C(O)C[n+]1c(/C=C/c2ccc3c(c2)C2CCCC2N3c2ccc(C=C(c3ccccc3)c3ccccc3)cc2)oc2ccccc21.[Br-] (centres unmarked) [Compound 65],++,657,570,1
CCN1C(=O)/C(=c2\s/c(=C/c3ccc4c(c3)C3CCCC3N4c3ccc(SC)cc3)c(=O)n2CC(=O)O)SC1=S (centres unmarked) [Compound 67],+++,699,570,–

# From patent US9764046B2, “Labeling composition for intraocular tissue, labeling method of intraocular tissue, and screening method” (CANON KABUSHIKI KAISHA, priority 2008, dated 2017)
